{
  "source": "patent US12029728B2",
  "about": "“Small molecules with anti-protozoan activity” (New Mexico Tech University Research Park Corporation, priority 2018, dated 2024)",
  "key": {"[1]": {"system": "T. cruzi amastigotes and trypomastigotes", "assay": "Viability of tdTomato T. cruzi amastigotes and trypomastigotes, fluorescence", "assay_type": "cell-based, Trypanosoma cruzi", "settings": "25 μM, 48 hours at 37° C.", "procedure": "The viability of a mixture of T. cruzi amastigotes and trypomastigotes after exposure to 25 μM of the compounds of the disclosure was determined. 2×10^5 parasites/100 μL were plated in 96-well plates. Parasites expressing tdTomato were used to assess parasite viability using fluorescence measurements. Parasites were incubated with 25 μM of the compounds of the disclosure for 48 hours at 37° C. After the incubation period, the viability of amastigotes and trypomastigotes was assessed by measuring the fluorescence intensity at 510 nm-590 nm using a Tecan plate reader, where the presence of fluorescence indicated viable amastigotes/trypomastigotes."}, "[2]": {"system": "T. gondii-infected ARPE cells", "assay": "Treatment of T. gondii-infected ARPE cells, imaging", "assay_type": "cell-based, Toxoplasma gondii", "settings": "for T. gondii in ARPE cells: 4 days", "procedure": "ARPE cells were cultured at confluency in a 24 well plate. Cells were incubated with T. gondii (ATCC PRA-310) for 1 hour at 37° C. to allow for T. gondii internalization. After the 1-hour T. gondii incubation period, extracellular T. gondii was removed from culture and cells were washed 3 times with cell media. […] Cells were visualized using an EVOS cell imaging system. The effect of a 3-day Compound 2 treatment on T. gondii-infected ARPE cells was also investigated. 2×10^4 ARPE cells were infected with ˜1×10^6 T. gondii parasites as described in the above paragraph. Cells were then incubated with 5 μM Compound 2 for 3 days at 37° C. Following incubation with Compound 2, cells were washed 3 times in cell media, fixed with 4% paraformaldehyde, stained with DAPI, and visualized with confocal microscopy."}, "[3]": {"system": "T. cruzi epimastigotes", "assay": "MIC against T. cruzi epimastigotes, ATP assay", "assay_type": "cell-based", "settings": "Trypanosoma cruzi, 48 hours at 30° C.", "procedure": "A 1:20 working dilution of T. cruzi epimastigotes was prepared in LIT1029 medium from a saturated (˜4×10^6 cells/mL) culture. 100 μL of the 1:20 working dilution was plated, and the epimastigotes were incubated with 50 μM, 25 μM, 12.5 μM, 6.25 μM, 3.13 μM, 1.5 μM, or 0 μM Compound 2 for 48 hours at 30° C. After incubation with Compound 2, T. cruzi viability was assessed via an ATP assay. […] An increase in relative light units (RLU) indicates the presence of ATP and viable cells. Phenylarsine oxide (PAO) was used as a control."}, "[4]": {"system": "U87 cells", "assay": "MTT cell survival assay, U87", "assay_type": "cell-based", "settings": "Homo sapiens, U-87 MG, 48 hours at 37° C., read-out: IC50 (GI50), cell survival", "procedure": "(§1) The GI50 (IC50), the concentration at which 50% cell survival is seen upon treatment with a compound, was determined for Compound 2 in Jurkat, U87, HeLa, and ARPE cells. Cells were cultured in 96-well plates and incubated with 50 μM, 25 μM, 12.5 μM, 6 μM, 3 μM, 1.5 μM, or 0 μM of Compound 2 for 48 hours at 37° C. Following the incubation period, a 3-(4,5-dimethylthiazol-2-yl)-2,5-diphenyl tetrazolium bromide (MTT) assay was performed. In brief, a 10% volume of MTT was added to each well. Cells were incubated with MTT for 2 hours, at which time cell supernatant was removed and cells were taken into 100 μL DMSO. The absorbance of cell solutions was then read at 595 nm. A decrease in absorbance indicated a decrease in cell survival."}, "[5]": {"system": "T. cruzi-infected VERO cells", "assay": "Treatment of T. cruzi-infected VERO cells, confocal microscopy", "assay_type": "cell-based, Trypanosoma cruzi", "settings": "5 μM, 5 days", "procedure": "2×10^4 VERO cells were plated in individual confocal dishes and allowed to adhere for 16 hours at 37° C. […] The T. cruzi-infected dishes were incubated with ˜2×10^6 T. cruzi/mL for 24 hours at 37° C. to allow for internalization of parasites. T. cruzi parasites expressed tdTomato, which allowed for visualization of parasites within cells. After the 24-hour T. cruzi incubation period, extracellular parasites were removed from culture dishes. The cells were washed 3 times with cell culture media (10% fetal bovine serum; 1% penicillin/streptomycin). Designated plates were then incubated with 5 μM Compound 2 or 5 μM Compound 7 for 5 days at 37° C. Cells were then fixed in 2% paraformaldehyde and tdTomato fluorescence in cells was assessed via confocal microscopy."}, "[6]": {"system": "T. cruzi epimastigotes", "assay": "T. cruzi epimastigote toxicity, visually assessed", "assay_type": "cell-based, Trypanosoma cruzi", "settings": "48 hours at 30° C.", "procedure": "A 1:20 working dilution of T. cruzi epimastigotes was prepared in LIT1029 medium from a saturated (˜4×10^6 cells/mL) culture. 100 μL of the 1:20 working dilution was plated, and the epimastigotes were incubated with a compound of the disclosure at varying concentrations for 48 hours at 30° C. Following T. cruzi epimastigote treatment with a compound of the disclosure, the toxicity of compounds towards T. cruzi epimastigotes was visually assessed."}, "[7]": {"system": "HeLa cells", "assay": "MTT cell survival assay, HeLa", "assay_type": "cell-based", "settings": "Homo sapiens, 48 hours at 37° C., read-out: IC50 (GI50), cell survival", "procedure": "as §1"}},
  "data": [
    {"smiles": "O=C(NO)C(c1ccccc1)c1c(-c2ccc3ccccc3c2)[nH]c2ccccc12", "note": "(stereo not shown) [Compound 2, N-hydroxy-2-(2-(naphthalen-2-yl)-1H-indol-3-yl)-2-phenylacetamide]", "values": [
      {"measurement": "toxicity to T. cruzi amastigotes and trypomastigotes", "setting": "[1]", "value": "most toxic"},
      {"measurement": "T. gondii in ARPE cells", "setting": "[2]; 2 μM", "value": "clearance of T. gondii from ARPE cells"},
      {"measurement": "T. gondii infection of ARPE cells", "setting": "[2]; 5 μM, 3 days", "value": "cleared ARPE cells of T. gondii infection"},
      {"measurement": "T. gondii in ARPE cells", "setting": "[2]; 5 μM", "value": "clearance of T. gondii from ARPE cells"},
      {"measurement": "T. gondii infection of ARPE cells", "setting": "[2]; 5 μM, 5 days", "value": "cleared ARPE cells of T. gondii infection"},
      {"measurement": "MIC", "setting": "[3]", "value": "~6", "unit": "µM"},
      {"measurement": "IC50", "setting": "[4]", "value": "11.5 ± 0.41", "unit": "µM"},
      {"measurement": "T. cruzi infection in VERO cells", "setting": "[5]", "value": "eradication of T. cruzi infection"},
      {"measurement": "Concentration at which T. cruzi epimastigote death is greater than or equal to ~99%", "setting": "[6]", "value": 6, "unit": "µM"},
      {"measurement": "IC50", "setting": "[7]", "value": "13.7 ± 0.75", "unit": "µM"}
    ]}
  ]
}
